The target in the assay is BTK wild type (Homo sapiens (Human), UniProt Q06187). The experiment in a line: Inhibition assay of BTK kinase activity (HTRF). Type of assay: biochemical. As to the method:
Inhibition Assay of BTK Kinase Activity:
The enzyme reaction mixture of BTK wild type standard HTRF assay contained 1 nM BTK wild type, 1 μM biotin-TK1 peptide, and 30 μM ATP in a buffer. The enzyme reaction were carried out at room temperature for 60 minutes. […] The plates were incubated at room temperature for 60 minutes and then read in the Envision plate reader.
(TR-FRET usually uses a lanthanide donor and a delayed reading to cut background.)

Setting [1] is: all compounds with IC50 of less 10 nM, read-out: IC50 (BTK).

Structures are written as SMILES. Read-outs that look alike come from different tables or passages of the source.

Chain of BTK wild type (Q06187 whole entry): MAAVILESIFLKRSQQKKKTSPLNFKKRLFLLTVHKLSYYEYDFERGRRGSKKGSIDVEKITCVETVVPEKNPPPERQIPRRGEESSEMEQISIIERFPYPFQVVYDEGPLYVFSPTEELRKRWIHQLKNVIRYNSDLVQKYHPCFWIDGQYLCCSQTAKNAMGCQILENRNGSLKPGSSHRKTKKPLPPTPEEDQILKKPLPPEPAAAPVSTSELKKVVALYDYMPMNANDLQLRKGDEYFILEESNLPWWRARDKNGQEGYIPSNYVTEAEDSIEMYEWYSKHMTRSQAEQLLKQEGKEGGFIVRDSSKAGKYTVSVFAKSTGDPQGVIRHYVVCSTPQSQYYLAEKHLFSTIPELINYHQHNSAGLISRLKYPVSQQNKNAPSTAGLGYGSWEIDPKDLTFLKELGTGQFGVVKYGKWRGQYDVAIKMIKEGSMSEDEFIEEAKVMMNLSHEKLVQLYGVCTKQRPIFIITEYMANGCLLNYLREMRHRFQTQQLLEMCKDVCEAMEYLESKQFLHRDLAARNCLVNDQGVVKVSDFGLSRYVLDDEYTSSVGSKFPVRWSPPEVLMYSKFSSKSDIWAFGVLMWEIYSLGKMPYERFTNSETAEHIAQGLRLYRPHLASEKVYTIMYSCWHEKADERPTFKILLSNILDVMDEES

The IC50 is the midpoint of a concentration-inhibition curve. Regarding `Nc1ncnc2c1c(-c1ccc(Oc3c(F)c(F)cc(F)c3F)cc1F)nn2[C@@H]1CCN(C(=O)c2nc3ccccc3o2)C1` [Compound 110, ((R)-3-(4-amino-3-(2-fluoro-4-(2,3,5,6-tetrafluorophenoxy)phenyl)-1H-pyrazolo[3,4-d]pyrimidin-1-yl)pyrrolidin-1-yl)(benzo[d]oxazol-2-yl)methanone], the IC50 (read-out: BTK IC50) was 5270 nM.
As for `Nc1ncnc2c1c(-c1ccc(Oc3c(F)c(F)cc(F)c3F)cc1F)nn2[C@@H]1CCN(C(=O)/C=C/c2ccccc2F)C1` [Compound 93, (E)-1-((R)-3-(4-amino-3-(2-fluoro-4-(2,3,5,6-tetrafluorophenoxy)phenyl)-1H-pyrazolo[3,4-d]pyrimidin-1-yl)pyrrolidin-1-yl)-3-(2-fluorophenyl)prop-2-en-1-one], the IC50 (read-out: BTK IC50) worked out at 2650 nM.
On the same count and under the same terms, with `CNC(=O)/C=C/CNC(=O)N1CC[C@@H](n2nc(-c3ccc(Oc4c(F)c(F)cc(F)c4F)cc3F)c3c(N)ncnc32)C1` [Compound 76, (3R)-3-(4-amino-3-(2-fluoro-4-(2,3,5,6-tetrafluorophenoxy)phenyl)-1H-pyrazolo[3,4-d]pyrimidin-1-yl)-N-(4-(methylamino)-4-oxobut-2-enyl)pyrrolidine-1-carboxamide] the figure was 27 nM; with `CNC(=O)CN1CCCC(n2nc(-c3ccc(Oc4c(F)c(F)cc(F)c4F)cc3F)c3c(N)ncnc32)C1` (centres unmarked) [Compound 56, 2-(3-(4-amino-3-(2-fluoro-4-(2,3,5,6-tetrafluorophenoxy)phenyl)-1H-pyrazolo[3,4-d]pyrimidin-1-yl)piperidin-1-yl)-N-methylacetamide], 365 nM.
On to `CN(C)C/C=C/C(=O)N1CC[C@@H](n2nc(-c3ccc(Oc4c(F)c(F)cc(F)c4F)cc3F)c3c(N)ncnc32)C1` [Compound 91, (E)-1-((R)-3-(4-amino-3-(2-fluoro-4-(2,3,5,6-tetrafluorophenoxy)phenyl)-1H-pyrazolo[3,4-d]pyrimidin-1-yl)pyrrolidin-1-yl)-4-(dimethylamino)but-2-en-1-one], for which the IC50 reads like this: under setting [1], below 10 nM; (read-out: BTK IC50) 3 nM.
Turning to `C=CC(=O)NCC(C)n1nc(-c2ccc(Oc3c(F)c(F)cc(F)c3F)cc2F)c2c(N)ncnc21` (centres unmarked) [Compound 84, N-(2-(4-amino-3-(2-fluoro-4-(2,3,5,6-tetrafluorophenoxy)phenyl)-1H-pyrazolo[3,4-d]pyrimidin-1-yl)propyl)acrylamide], where the note is “read-out: BTK IC50”, the concentration for half-maximal inhibition (IC50) was determined as 16 nM.
`C/C(O)=C(/C#N)C(=O)N1CCCC(n2nc(-c3ccc(C(=O)c4cccc(F)c4)cc3F)c3c(N)ncnc32)C1` (centres unmarked) [Compound 7, (E)-2-(3-(4-amino-3-(2-fluoro-4-(3-fluorobenzoyl)phenyl)-1H-pyrazolo[3,4-d]pyrimidin-1-yl)piperidine-1-carbonyl)-3-hydroxybut-2-enenitrile]: the IC50 (read-out: BTK IC50) came out at 730 nM.
As for `Nc1ncnc2c1c(-c1ccc(Oc3c(F)c(F)cc(F)c3F)cc1F)nn2[C@H]1CCCN(C(=O)CCl)C1` [Compound 100, 1-((S)-3-(4-amino-3-(2-fluoro-4-(2,3,5,6-tetrafluorophenoxy)phenyl)-1H-pyrazolo[3,4-d]pyrimidin-1-yl)piperidin-1-yl)-2-chloroethanone], the IC50 reads like this: under setting [1], below 10 nM; (read-out: BTK IC50) 2 nM.
Take `C=C(CO)C(=O)N1CCCC(n2nc(-c3ccc(Oc4c(F)c(F)cc(F)c4F)cc3F)c3c(N)ncnc32)C1` (centres unmarked) [Compound 50, 1-(3-(4-amino-3-(2-fluoro-4-(2,3,5,6-tetrafluorophenoxy)phenyl)-1H-pyrazolo[3,4-d]pyrimidin-1-yl)piperidin-1-yl)-2-(hydroxymethyl)prop-2-en-1-one]: the IC50 (read-out: BTK IC50) worked out at 87 nM.
For `C=CC(=O)N1CC[C@@H](n2nc(-c3ccc(Oc4nccc(C(F)(F)F)n4)cc3F)c3c(N)ncnc32)C1` [Compound 97, 1-((R)-3-(4-amino-3-(2-fluoro-4-(4-(trifluoromethyl)pyrimidin-2-yloxy)phenyl)-1H-pyrazolo[3,4-d]pyrimidin-1-yl)pyrrolidin-1-yl)prop-2-en-1-one], the IC50 (read-out: BTK IC50) amounted to 6 nM.
On to `C=CC(=O)N1CC[C@@H](n2nc(-c3ccc(Oc4ncccn4)cc3F)c3c(N)ncnc32)C1` [Compound 95, 1-((R)-3-(4-amino-3-(2-fluoro-4-(pyrimidin-2-yloxy)phenyl)-1H-pyrazolo[3,4-d]pyrimidin-1-yl)pyrrolidin-1-yl)prop-2-en-1-one], for which the IC50 by setting is: under setting [1], below 10 nM; (read-out: BTK IC50) 5 nM.
The corresponding values for `C=CC(=O)N[C@@H]1CC[C@@H](n2nc(-c3ccc(Oc4cccc(F)c4)cc3F)c3c(N)ncnc32)C1` [Compound 16, N-((1r,3r)-3-(4-amino-3-(2-fluoro-4-(3-fluorophenoxy)phenyl)-1H-pyrazolo[3,4-d]pyrimidin-1-yl)cyclopentyl)acrylamide] are below 10 nM and 3 nM.
For `C=CC(=O)NCC1CCC(n2nc(-c3ccc(Oc4c(F)c(F)cc(F)c4F)cc3F)c3c(N)ncnc32)C1` (centres unmarked) [Compound 28, N-((3-(4-amino-3-(2-fluoro-4-(2,3,5,6-tetrafluorophenoxy)phenyl)-1H-pyrazolo[3,4-d]pyrimidin-1-yl)cyclopentyl)methyl)acrylamide], where the note is “read-out: BTK IC50”, the IC50 came to 7 nM.
Consider `Nc1ncnc2c1c(-c1ccc(Oc3c(F)c(F)cc(F)c3F)cc1F)nn2[C@@H]1CCCN(C(=O)C(Cl)Cl)C1` [Compound 101, 1-((R)-3-(4-amino-3-(2-fluoro-4-(2,3,5,6-tetrafluorophenoxy)phenyl)-1H-pyrazolo[3,4-d]pyrimidin-1-yl)piperidin-1-yl)-2,2-dichloroethanone], for which the IC50 (read-out: BTK IC50) came out at 525 nM.
For the compound `C=CC(=O)N1CC[C@@H](n2nc(-c3ccc(Oc4cccc(F)c4)cc3F)c3c(N)ncnc32)C1` [Compound 94, 1-((R)-3-(4-amino-3-(2-fluoro-4-(3-fluorophenoxy)phenyl)-1H-pyrazolo[3,4-d]pyrimidin-1-yl)pyrrolidin-1-yl)prop-2-en-1-one], the IC50 is below 10 nM under setting [1] and 1 nM (read-out: BTK IC50).
`C=CC(=O)N[C@H]1CC[C@H](n2nc(-c3ccc(Oc4cccc(F)c4)cc3F)c3c(N)ncnc32)CC1` [Compound 14, N-((1r,4r)-4-(4-amino-3-(2-fluoro-4-(3-fluorophenoxy)phenyl)-1H-pyrazolo[3,4-d]pyrimidin-1-yl)cyclohexyl)acrylamide]: for the setting “read-out: BTK IC50”, the IC50 came to 9 nM.
Still for that read-out and setting: with `Nc1ncnc2c1c(-c1ccc(Oc3c(F)c(F)cc(F)c3F)cc1F)nn2C1CCCN(C(=O)C2CNC(=O)S2)C1` (centres unmarked) [Compound 63, 5-(3-(4-amino-3-(2-fluoro-4-(2,3,5,6-tetrafluorophenoxy)phenyl)-1H-pyrazolo[3,4-d]pyrimidin-1-yl)piperidine-1-carbonyl)thiazolidin-2-one] the figure was 454 nM.
On to `C=C(F)C(=O)N1CC[C@@H](n2nc(-c3ccc(Oc4c(F)c(F)cc(F)c4F)cc3F)c3c(N)ncnc32)C1` [Compound 106, 1-((R)-3-(4-amino-3-(2-fluoro-4-(2,3,5,6-tetrafluorophenoxy)phenyl)-1H-pyrazolo[3,4-d]pyrimidin-1-yl)pyrrolidin-1-yl)-2-fluoroprop-2-en-1-one], for which the IC50 by setting is: under setting [1], below 10 nM; (read-out: BTK IC50) 3 nM.
For the compound `Nc1ncnc2c1c(-c1ccc(Oc3c(F)c(F)cc(F)c3F)cc1F)nn2[C@H]1CCCN(C(=O)CF)C1` [Compound 108, 1-((S)-3-(4-amino-3-(2-fluoro-4-(2,3,5,6-tetrafluorophenoxy)phenyl)-1H-pyrazolo[3,4-d]pyrimidin-1-yl)piperidin-1-yl)-2-fluoroethanone], the IC50 (read-out: BTK IC50) stood at 436 nM.
Same read-out and setting: the result for `C=C(CN1CCCC(n2nc(-c3ccc(Oc4c(F)c(F)cc(F)c4F)cc3F)c3c(N)ncnc32)C1)C(=O)OCC` (centres unmarked) [Compound 68, ethyl 2-((3-(4-amino-3-(2-fluoro-4-(2,3,5,6-tetrafluorophenoxy)phenyl)-1H-pyrazolo[3,4-d]pyrimidin-1-yl)piperidin-1-yl)methyl)acrylate] reads 279 nM; that for `NC(=O)/C=C/C(=O)N1CCCC(n2nc(-c3ccc(Oc4c(F)c(F)cc(F)c4F)cc3F)c3c(N)ncnc32)C1` (centres unmarked) [Compound 41, (E)-4-(3-(4-amino-3-(2-fluoro-4-(2,3,5,6-tetrafluorophenoxy)phenyl)-1H-pyrazolo[3,4-d]pyrimidin-1-yl)piperidin-1-yl)-4-oxobut-2-enamide], 17 nM.
As to `Nc1ncnc2c1c(-c1ccc(Oc3c(F)c(F)cc(F)c3F)cc1F)nn2C1CCCN(C(=O)CC(=O)C(F)(F)F)C1` (centres unmarked) [Compound 65, 1-(3-(4-amino-3-(2-fluoro-4-(2,3,5,6-tetrafluorophenoxy)phenyl)-1H-pyrazolo[3,4-d]pyrimidin-1-yl)piperidin-1-yl)-4,4,4-trifluorobutane-1,3-dione], where the note is “read-out: BTK IC50”, the IC50 was 119 nM.
The same measure, in the same setting: the result for `N=C(N)NC(=O)N1CCCC(n2nc(-c3ccc(Oc4c(F)c(F)cc(F)c4F)cc3F)c3c(N)ncnc32)C1` (centres unmarked) [Compound 43, N-[3-[4-amino-3-[2-fluoro-4-(2,3,5,6-trifluorophenoxy)phenyl]-1H-pyrazolo[3,4-d]pyrimidin-1-yl]piperidine-1-carbonyl] formamidine] reads 131 nM.
With `Nc1ncnc2c1c(-c1ccc(Oc3c(F)c(F)cc(F)c3F)cc1F)nn2[C@@H]1CCN(C(=O)/C=C/c2ccccc2)C1` [Compound 92, (E)-1-((R)-3-(4-amino-3-(2-fluoro-4-(2,3,5,6-tetrafluorophenoxy)phenyl)-1H-pyrazolo[3,4-d]pyrimidin-1-yl)pyrrolidin-1-yl)-3-phenylprop-2-en-1-one], the IC50 (read-out: BTK IC50) turned out to be 2400 nM.
For the compound `C=CC(=O)N[C@H]1CC[C@@H](n2nc(-c3ccc(Oc4c(F)c(F)cc(F)c4F)cc3F)c3c(N)ncnc32)CC1` [Compound 22, N-((1s,4s)-4-(4-amino-3-(2-fluoro-4-(2,3,5,6-tetrafluorophenoxy)phenyl)-1H-pyrazolo[3,4-d]pyrimidin-1-yl)cyclohexyl)acrylamide], for the setting “read-out: BTK IC50”, the half-maximal inhibitory concentration (IC50) worked out at 50 nM.
For `C=C(CN1CCCC(n2nc(-c3ccc(Oc4c(F)c(F)cc(F)c4F)cc3F)c3c(N)ncnc32)C1)C(=O)NC` (centres unmarked) [Compound 69, 2-((3-(4-amino-3-(2-fluoro-4-(2,3,5,6-tetrafluorophenoxy)phenyl)-1H-pyrazolo[3,4-d]pyrimidin-1-yl)piperidin-1-yl)methyl)-N-methylacrylamide], the IC50 (read-out: BTK IC50) was found to be 52 nM.
